This passage reports IC50 results from patent publication US9745320B2, “Five-and-six-membered heterocyclic compound, and preparation method, pharmaceutical composition and use thereof” (SHANGHAI CHEMEXPLORER CO., LTD., priority 2013, dated 2017).

Common to all, as to format: biochemical
Assay [1] deals with JAK2 (Homo sapiens, UniProt O60674). Briefly: JAK 2 enzymatic inhibitory activity IC50 assay (Caliper conversion rate). Particulars: Km ATP, 28° C., 1 hour. The method, then:
(§1) Biological effect: intracytoplasmic JAK 1,2,3 enzymatic inhibitory activity IC50 assay
(§2) JAK1 buffer solution: 25 mM HEPES, pH 7.5, 0.01% Brij-35, 0.01 M Triton. JAK2,3 buffer solution: 50 mM HEPES, pH 7.5, 0.0015% Brij-35.
(§3) 2. Compound was formulated in 100% DMSO in a concentration gradient, deposited to a 384-well plate with a final concentration of 2% of DMSO.
(§4) 3. JAK2,3 enzymes were diluted to having an optimum concentration with the following buffer: 50 mM HEPES, pH 7.5, 0.0015% Brij-35, 2 mM DTT. JAK1 enzyme was diluted to having an optimum concentration with the following buffer: 25 mM HEPES, pH 7.5, 0.01% Brij-35, 2 mM DTT, 0.01M Triton. Then they were transferred to a 384-well plate and incubated with the compound for a certain time.
(§5) 4. JAK2,3 substrate was diluted to having an optimum concentration with the following buffer: 50 mM HEPES, pH 7.5, 0.0015% Brij-35, 10 mM MgCl2, Km adenosine triphosphate. JAK1 substrate was diluted to having an optimum concentration with the following buffer: 25 mM HEPES, pH 7.5, 0.01% Brij-35, 10 mM MgCl2, 0.01 M Triton. Km adenosine triphosphate was added into 384-well plates to initiate reactions, and the reaction were carried out at 28° C. for 1 hour.
(§6) 5. Read the conversion rate by Caliper Reader, and the inhibition rate are calculated according to the average of two tests.

Assay [2] deals with T1, JAK3 (Homo sapiens, UniProt P52333).
T1 sequence (P52333 1-1124): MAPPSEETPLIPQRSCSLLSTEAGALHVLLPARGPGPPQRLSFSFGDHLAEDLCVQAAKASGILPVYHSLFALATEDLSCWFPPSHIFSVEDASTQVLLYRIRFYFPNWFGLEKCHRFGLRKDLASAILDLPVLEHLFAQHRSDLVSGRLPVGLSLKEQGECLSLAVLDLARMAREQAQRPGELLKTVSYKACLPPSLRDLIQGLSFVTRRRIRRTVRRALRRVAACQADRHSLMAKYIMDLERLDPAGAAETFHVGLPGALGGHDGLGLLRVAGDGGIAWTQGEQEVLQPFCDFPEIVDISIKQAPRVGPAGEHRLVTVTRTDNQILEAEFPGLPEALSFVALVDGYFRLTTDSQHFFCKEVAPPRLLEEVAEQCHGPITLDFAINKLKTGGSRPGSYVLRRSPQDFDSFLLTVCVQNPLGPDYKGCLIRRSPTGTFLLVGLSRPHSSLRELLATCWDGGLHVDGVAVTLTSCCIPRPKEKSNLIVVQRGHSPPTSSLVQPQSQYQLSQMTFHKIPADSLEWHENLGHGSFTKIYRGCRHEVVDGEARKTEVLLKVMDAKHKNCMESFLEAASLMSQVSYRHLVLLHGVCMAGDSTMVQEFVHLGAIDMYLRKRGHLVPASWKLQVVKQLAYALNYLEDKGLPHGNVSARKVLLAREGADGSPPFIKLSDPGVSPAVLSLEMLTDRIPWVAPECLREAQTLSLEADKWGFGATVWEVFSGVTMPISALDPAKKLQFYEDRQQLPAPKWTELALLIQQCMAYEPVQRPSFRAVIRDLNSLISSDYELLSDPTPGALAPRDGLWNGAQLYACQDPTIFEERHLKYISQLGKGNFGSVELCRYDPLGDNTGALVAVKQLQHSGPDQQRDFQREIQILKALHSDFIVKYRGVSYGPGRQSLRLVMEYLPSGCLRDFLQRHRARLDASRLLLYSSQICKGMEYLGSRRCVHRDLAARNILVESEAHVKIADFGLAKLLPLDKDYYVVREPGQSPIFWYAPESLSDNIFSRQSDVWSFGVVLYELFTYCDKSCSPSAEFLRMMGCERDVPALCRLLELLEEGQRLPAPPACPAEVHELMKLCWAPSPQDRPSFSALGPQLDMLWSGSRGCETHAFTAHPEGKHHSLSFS
Briefly: JAK 3 enzymatic inhibitory activity IC50 assay (Caliper conversion rate). Particulars: Km ATP, 28° C., 1 hour; read-out: JAK 3 enzymatic inhibitory activity IC50. As to the method:
as §1, §2, §3
3. JAK2,3 enzymes were diluted to having an optimum concentration with the following buffer: 50 mM HEPES, pH 7.5, 0.0015% Brij-35, 2 mM DTT. JAK1 enzyme was diluted to having an optimum concentration with the following buffer: 25 mM HEPES, pH 7.5, 0.01% Brij-35, 2 mM DTT, 0.01M Triton. Then they were transferred to a 384-well plate and incubated with the compound for a certain time. […]
as §6

In assay [3] the target is JAK1 (Homo sapiens, UniProt P23458). Kind of assay: JAK 1 enzymatic inhibitory activity IC50 assay (Caliper conversion rate). Particulars: Km ATP, 28° C., 1 hour. As to the method:
as §1, §2, §3, §4, §5, §6

Where only a bound is given, the exact number is not on record here.

Chain of JAK2 (O60674 whole entry, species assumed): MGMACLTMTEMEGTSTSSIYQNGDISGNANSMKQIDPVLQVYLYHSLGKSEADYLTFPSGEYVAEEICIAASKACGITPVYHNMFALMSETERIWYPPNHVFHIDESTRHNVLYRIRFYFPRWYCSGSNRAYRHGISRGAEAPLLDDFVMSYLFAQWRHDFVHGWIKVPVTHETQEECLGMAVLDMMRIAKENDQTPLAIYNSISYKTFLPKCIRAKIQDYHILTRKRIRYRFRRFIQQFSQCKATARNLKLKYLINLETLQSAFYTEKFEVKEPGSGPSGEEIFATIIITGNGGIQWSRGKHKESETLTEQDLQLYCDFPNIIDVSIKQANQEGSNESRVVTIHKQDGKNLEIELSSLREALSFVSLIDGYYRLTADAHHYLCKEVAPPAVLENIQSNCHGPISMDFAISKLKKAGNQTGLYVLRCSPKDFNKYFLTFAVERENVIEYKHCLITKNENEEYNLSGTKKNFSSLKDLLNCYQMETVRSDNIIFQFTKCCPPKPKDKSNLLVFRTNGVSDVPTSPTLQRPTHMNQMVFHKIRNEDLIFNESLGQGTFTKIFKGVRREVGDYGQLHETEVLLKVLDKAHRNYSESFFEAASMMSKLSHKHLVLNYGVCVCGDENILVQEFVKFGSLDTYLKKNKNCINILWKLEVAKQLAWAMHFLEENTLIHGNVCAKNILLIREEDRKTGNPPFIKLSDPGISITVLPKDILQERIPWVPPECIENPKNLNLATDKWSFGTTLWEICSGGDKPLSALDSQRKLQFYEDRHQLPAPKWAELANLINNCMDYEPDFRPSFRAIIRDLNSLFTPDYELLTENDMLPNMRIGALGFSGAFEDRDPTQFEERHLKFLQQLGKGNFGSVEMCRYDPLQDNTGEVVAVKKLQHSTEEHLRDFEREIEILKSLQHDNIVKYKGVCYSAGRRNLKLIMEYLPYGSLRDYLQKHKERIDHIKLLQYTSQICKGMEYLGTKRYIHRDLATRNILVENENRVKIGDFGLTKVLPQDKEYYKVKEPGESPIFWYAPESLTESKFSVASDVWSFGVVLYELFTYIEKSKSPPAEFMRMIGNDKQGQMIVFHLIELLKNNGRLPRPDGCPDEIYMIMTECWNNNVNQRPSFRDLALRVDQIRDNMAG
Chain of JAK1 (P23458 whole entry, species assumed): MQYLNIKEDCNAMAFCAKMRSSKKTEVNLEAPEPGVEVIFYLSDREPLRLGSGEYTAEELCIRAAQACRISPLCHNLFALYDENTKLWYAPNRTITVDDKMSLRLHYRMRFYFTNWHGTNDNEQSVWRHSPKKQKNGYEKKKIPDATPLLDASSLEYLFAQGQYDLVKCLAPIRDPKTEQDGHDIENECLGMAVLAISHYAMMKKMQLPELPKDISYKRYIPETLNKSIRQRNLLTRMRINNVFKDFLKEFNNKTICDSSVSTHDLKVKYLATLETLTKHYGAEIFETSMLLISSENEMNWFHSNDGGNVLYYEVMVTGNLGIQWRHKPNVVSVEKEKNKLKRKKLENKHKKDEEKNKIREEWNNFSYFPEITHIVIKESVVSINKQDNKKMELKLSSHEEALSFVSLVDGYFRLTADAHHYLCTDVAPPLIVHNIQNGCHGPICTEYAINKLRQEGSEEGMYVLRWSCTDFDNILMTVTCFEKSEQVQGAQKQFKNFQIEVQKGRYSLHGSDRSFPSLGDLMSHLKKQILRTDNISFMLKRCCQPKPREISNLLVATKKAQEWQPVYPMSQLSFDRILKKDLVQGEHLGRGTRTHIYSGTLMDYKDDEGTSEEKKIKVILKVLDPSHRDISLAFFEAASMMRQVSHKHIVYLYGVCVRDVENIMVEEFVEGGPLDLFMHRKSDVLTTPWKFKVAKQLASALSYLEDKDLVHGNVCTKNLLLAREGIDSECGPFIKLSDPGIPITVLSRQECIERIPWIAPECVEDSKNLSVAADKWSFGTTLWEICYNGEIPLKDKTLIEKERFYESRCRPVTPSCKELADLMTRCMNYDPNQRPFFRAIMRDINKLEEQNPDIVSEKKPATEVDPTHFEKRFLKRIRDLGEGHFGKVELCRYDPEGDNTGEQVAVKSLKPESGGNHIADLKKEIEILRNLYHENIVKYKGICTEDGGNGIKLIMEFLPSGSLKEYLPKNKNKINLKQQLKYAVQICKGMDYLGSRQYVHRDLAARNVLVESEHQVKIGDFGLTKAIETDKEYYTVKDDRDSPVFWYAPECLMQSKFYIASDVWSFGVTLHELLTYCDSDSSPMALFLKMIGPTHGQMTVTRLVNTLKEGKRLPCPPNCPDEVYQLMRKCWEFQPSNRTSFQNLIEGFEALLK

For the molecule `CC(C)(C)NS(=O)(=O)c1ccc(-c2nc(Nc3ccc(N4CCOCC4)cc3)nc3ccsc23)cc1` [Compound T-17, N-(Tert-butyl)-4-(2-((4-morpholinophenyl)amino)thieno[3,2-d]pyrimidin-4-yl)benzenesulfonamide], the IC50 in assay [1], in assay [2] and in assay [3] was above 1 µM throughout.

With `CCS(=O)(=O)N1CC(CC#N)(n2cc(-c3nc(Nc4ccc(S(C)(=O)=O)cc4)nc4sccc34)cn2)C1` [Compound T-18, 2-(1-(Ethylsulfonyl)-3-(4-(2-((4-(methylsulfonyl)phenyl)amino)thieno[2,3-d]pyrimidin-4-yl)-1H-pyrazol-1-yl)azetidin-3-yl)acetonitrile], the IC50 in assay [1] is below 0.05 µM; in assay [2], 0.5 to 1 µM; in assay [3] it was 0.05 to 0.5 µM.

Turning to `CCS(=O)(=O)N1CC(CC#N)(n2cc(-c3nc(Nc4ccc(C#N)cc4)nc4ccsc34)cn2)C1` [Compound T-19, 4-((4-(1-(3-(Cyanomethyl)-1-(ethylsulfonyl)azetidin-3-yl)-1H-pyrazol-4-yl)thieno[3,2-d]pyrimidin-2-yl)amino)benzonitrile], the IC50 in assay [1] was below 0.05 µM; in assay [2], 0.05 to 0.5 µM; in assay [3], 0.05 to 0.5 µM.

With `N#CCC1(n2cc(-c3nc(Nc4ccccc4)nc4ccsc34)cn2)COC1` [Compound T-20, 2-(3-(4-(2-(Phenylamino)thieno[3,2-d]pyrimidin-4-yl)-1H-pyrazol-1-yl)oxetan-3-yl)acetonitrile], the IC50 was below 0.05 µM in assay [1], 0.5 to 1 µM in assay [2] and 0.05 to 0.5 µM in assay [3].

For `CCS(=O)(=O)N1CC(CC#N)(n2cc(-c3nc(Nc4ccncc4)nc4ccsc34)cn2)C1` [Compound T-21, 2-(1-(Ethylsulfonyl)-3-(4-(2-(pyridin-4-ylamino)thieno[3,2-d]pyrimidin-4-yl)-1H-pyrazol-1-yl)azetidin-3-yl)acetonitrile], the IC50 in assay [1] is below 0.05 µM; in assay [2], 0.05 to 0.5 µM; in assay [3], 0.05 to 0.5 µM.

Regarding `CCS(=O)(=O)N1CC(CC#N)(n2cc(-c3nc(Nc4ccc(C#N)nc4)nc4ccsc34)cn2)C1` [Compound T-22, 5-((4-(1-(3-(Cyanomethyl)-1-(ethylsulfonyl)azetidin-3-yl)-1H-pyrazol-4-yl)thieno[3,2-d]pyrimidin-2-yl)amino)picolinonitrile], the IC50 in assay [1] was below 0.05 µM; in assay [2] it was above 1 µM; in assay [3], above 1 µM.

In the case of `CCS(=O)(=O)N1CC(CC#N)(n2cc(-c3nc(Nc4ccccc4)nc4cc(C)sc34)cn2)C1` [Compound T-23, 2-(1-(Ethylsulfonyl)-3-(4-(6-methyl-2-(phenylamino)thieno[3,2-d]pyrimidin-4-yl)-1H-pyrazol-1-yl)azetidin-3-yl)acetonitrile], the IC50 in assay [1], in assay [2] and in assay [3] was above 1 µM in each case.

As for `CCS(=O)(=O)N1CC(CC#N)(n2cc(-c3nc(Nc4ccn(C)n4)nc4ccsc34)cn2)C1` [Compound T-25, 2-(1-(Ethylsulfonyl)-3-(4-(2-((1-methyl-1H-pyrazol-3-yl)amino)thieno[3,2-d]pyrimidin-4-yl)-1H-pyrazol-1-yl)azetidin-3-yl)acetonitrile], the IC50 was below 0.05 µM in assay [1], 0.05 to 0.5 µM in assay [2] and below 0.05 µM in assay [3].

Turning to `CCS(=O)(=O)N1CC(CC#N)(n2cc(-c3nc(Nc4cccnc4)nc4ccsc34)cn2)C1` [Compound T-26, 2-(1-(Ethylsulfonyl)-3-(4-(2-(pyridin-3-ylamino)thieno[3,2-d]pyrimidin-4-yl)-1-pyrazol-1-yl)azetidin-3-yl)acetonitrile], the figures for the IC50 in assay [1], in assay [2] and in assay [3] were below 0.05 µM, 0.05 to 0.5 µM and below 0.05 µM, respectively.

Regarding `CCS(=O)(=O)N1CC(CC#N)(n2cc(-c3nc(NC4CC4)nc4ccsc34)cn2)C1` [Compound T-28, 2-(3-(4-(2-(Cyclopropylamino)thieno[3,2-d]pyrimidin-4-yl)-1H-pyrazol-1-yl)-1-(ethylsulfonyl)azetidin-3-yl)acetonitrile], the IC50 in assay [1], in assay [2] and in assay [3] was above 1 µM throughout.

As for `CCS(=O)(=O)N1CC(CC#N)(n2cc(-c3nc(NC(=O)C4CC4)nc4ccsc34)cn2)C1` [Compound T-29, N-(4-(1-(3-(Cyanomethyl)-1-(ethylsulfonyl)azetidin-3-yl)-1H-pyrazol-4-yl)thieno[3,2-d]pyrimidin-2-yl)cyclopropanecarboxamide], the IC50 in assay [1] was below 0.05 µM; in assay [2] it was above 1 µM; in assay [3], 0.05 to 0.5 µM.

Consider `CCS(=O)(=O)N1CC(CC#N)(n2cc(-c3nc(Nc4ccccc4)nc4ccoc34)cn2)C1` [Compound T-30, 2-(1-(Ethylsulfonyl)-3-(4-(2-(phenylamino)furo[3,2-d]pyrimidin-4-yl)-1H-pyrazol-1-yl)azetidin-3-yl)acetonitrile], for which the IC50 is below 0.05 µM in assay [1], 0.05 to 0.5 µM in assay [2] and 0.05 to 0.5 µM in assay [3].

As for `CCS(=O)(=O)N1CC(CC#N)(n2cc(-c3nc(Nc4cn[nH]c4)nc4ccsc34)cn2)C1` [Compound T-31, 2-(3-(4-(2-((1H-Pyrazol-4-yl)amino)thieno[3,2-d]pyrimidin-4-yl)-1H-pyrazol-1-yl)-1-(ethylsulfonyl)azetidin-3-yl)acetonitrile], the IC50 in assay [1] was below 0.05 µM; in assay [2] it was 0.05 to 0.5 µM; in assay [3] it was below 0.05 µM.

Turning to `CCS(=O)(=O)N1CC(CC#N)(n2cc(-c3nc(Nc4cnn(C(=O)COC)c4)nc4ccsc34)cn2)C1` [Compound T-32, 2-(1-(Ethylsulfonyl)-3-(4-(2-((1-(2-methoxyacetyl)-1H-pyrazol-4-yl)amino)thieno[3,2-d]pyrimidin-4-yl)-1H-pyrazol-1-yl)azetidin-3-yl)acetonitrile], the IC50 in assay [1], in assay [2] and in assay [3] was below 0.05 µM each time.

For `CCS(=O)(=O)N1CC(CC#N)(n2cc(-c3nc(Nc4cnn(CC(=O)O)c4)nc4ccsc34)cn2)C1` [Compound T-33, 2-(4-((4-(1-(3-(Cyanomethyl)-1-(ethylsulfonyl)azetidin-3-yl)-1H-pyrazol-4-yl)thieno[3,2-d]pyrimidin-2-yl)amino)-1H-pyrazol-1-yl)acetic acid], the IC50 in assay [1] was below 0.05 µM; in assay [2], 0.05 to 0.5 µM; in assay [3], below 0.05 µM.

In the case of `CCCCOC(=O)CCn1cc(Nc2nc(-c3cnn(C4(CC#N)CN(S(=O)(=O)CC)C4)c3)c3sccc3n2)cn1` [Compound T-34, Butyl 3-(4-((4-(1-(3-(cyanomethyl)-1-(ethylsulfonyl)azetidin-3-yl)-1H-pyrazol-4-yl)thieno[3,2-d]pyrimidin-2-yl)amino)-1H-pyrazol-1-yl)propanoate], the results for the IC50 in assay [1], in assay [2] and in assay [3] were below 0.05 µM, 0.05 to 0.5 µM and 0.05 to 0.5 µM, respectively.

A word on the IC50: it is the midpoint of a concentration-inhibition curve.
